Laboratory results published in patent US9340559B2, “Proteasome inhibitor delanzomib for use in the treatment of lupus” (Cephalon, Inc., priority 2011, dated 2016).

Tested on: NZM mice
Type: in vivo, mouse

O=P1(N(CCCl)CCCl)NCCCO1 (stereo not drawn) [CTX, Cyclophosphamide]
Cytokine IL-12 AUC, percent change vs vehicle (G6 50 mg/kg ip, 1× wk): −78%
Cytokine IL-13 AUC, percent change vs vehicle (G6 50 mg/kg ip, 1× wk): 486%
Cytokine IL-17A AUC, percent change vs vehicle (G6 50 mg/kg ip, 1× wk): 508%
Cytokine IP-10 AUC, percent change vs vehicle (G6 50 mg/kg ip, 1× wk): 338%
Cytokine MIG AUC, percent change vs vehicle (G6 50 mg/kg ip, 1× wk): 359%
Cytokine TNFα AUC, percent change vs vehicle (G6 50 mg/kg ip, 1× wk): −25%
p, serum IL-12p40/p70 concentration vs G5 Bortezomib 0.3 mg/kg 1× wk ip (G7 50 mg/kg 1× wk ip): NS (NS = not significant (p > 0.05))
p, serum IL-12p40/p70 concentration vs G6 Bortezomib 0.3 mg/kg 2× wk ip (G7 50 mg/kg 1× wk ip): NS (NS = not significant (p > 0.05))
p, serum IL-12p40/p70 concentration vs G8 Dex 1.5 mg/kg 3× wk ip (G7 50 mg/kg 1× wk ip): NS (NS = not significant (p > 0.05))
p, serum IL-12p40/p70 concentration vs G9 Vehicle 1× wk ip (G7 50 mg/kg 1× wk ip): p < 0.001
p, serum IL-13 concentration vs G5 Bortezomib 0.3 mg/kg 1× wk ip (G7 50 mg/kg 1× wk ip): p < 0.001
p, serum IL-13 concentration vs G6 Bortezomib 0.3 mg/kg 2× wk ip (G7 50 mg/kg 1× wk ip): p < 0.001
p, serum IL-13 concentration vs G8 Dex 1.5 mg/kg 3× wk ip (G7 50 mg/kg 1× wk ip): p < 0.001
p, serum IL-13 concentration vs G9 Vehicle 1× wk ip (G7 50 mg/kg 1× wk ip): p < 0.001
p, serum IL-17A concentration vs G5 Bortezomib 0.3 mg/kg 1× wk ip (G7 50 mg/kg 1× wk ip): NS (NS = not significant (p > 0.05))
p, serum IL-17A concentration vs G6 Bortezomib 0.3 mg/kg 2× wk ip (G7 50 mg/kg 1× wk ip): p < 0.001
p, serum IL-17A concentration vs G8 Dex 1.5 mg/kg 3× wk ip (G7 50 mg/kg 1× wk ip): p < 0.001
p, serum IL-17A concentration vs G9 Vehicle 1× wk ip (G7 50 mg/kg 1× wk ip): p < 0.001
p, serum IP-10 concentration vs G5 Bortezomib 0.3 mg/kg 1× wk ip (G7 50 mg/kg 1× wk ip): P < 0.001
p, serum IP-10 concentration vs G6 Bortezomib 0.3 mg/kg 2× wk ip (G7 50 mg/kg 1× wk ip): p < 0.001
p, serum IP-10 concentration vs G8 Dex 1.5 mg/kg 3× wk ip (G7 50 mg/kg 1× wk ip): P < 0.001
p, serum IP-10 concentration vs G9 Vehicle 1× wk ip (G7 50 mg/kg 1× wk ip): p < 0.001
p, serum MIG concentration vs G5 Bortezomib 0.3 mg/kg 1× wk ip (G7 50 mg/kg 1× wk ip): p < 0.001
p, serum MIG concentration vs G6 Bortezomib 0.3 mg/kg 2× wk ip (G7 50 mg/kg 1× wk ip): p < 0.001
p, serum MIG concentration vs G8 Dex 1.5 mg/kg 3× wk ip (G7 50 mg/kg 1× wk ip): p < 0.001
p, serum MIG concentration vs G9 Vehicle 1× wk ip (G7 50 mg/kg 1× wk ip): p < 0.001
p, serum TNFα concentration vs G5 Bortezomib 0.3 mg/kg 1× wk ip (G7 50 mg/kg 1× wk ip): NS (NS = not significant (p > 0.05))
p, serum TNFα concentration vs G6 Bortezomib 0.3 mg/kg 2× wk ip (G7 50 mg/kg 1× wk ip): NS (NS = not significant (p > 0.05))
p, serum TNFα concentration vs G8 Dex 1.5 mg/kg 3× wk ip (G7 50 mg/kg 1× wk ip): p <0.05
p, serum TNFα concentration vs G9 Vehicle 1× wk ip (G7 50 mg/kg 1× wk ip): NS (NS = not significant (p > 0.05))
